We go through two compounds from patent US6803359B2, “Inhibition of abnormal cell growth with corticotropin-releasing hormone analogs” (The Regents of the University of California, priority 1999, dated 2004).

For data set [1] the following is noted: in vivo, iv.
Experimental: (§3) On the ordinate, the response is given in units of integrated blood pressure observed over a 100 minute period after the intravenous injection of the test substance is pentobarbital-anesthetized rats (no. of animals=8 per group per dose). The area-under-curve, is given in units of mm Hg per minute.
In another data set the test system is B16 melanoma. Put plainly: Growth of subcutaneously transplanted B16 melanoma in mice (tumor volume by caliper). In kind it is in vivo. The following applies: 0.1 mg/kg s.c. on days 3 to 7. On the procedure:
(§1) This example illustrates the anti-cancer property of an inventive peptide with a D-amino acid as residue 20. Various tumor cells were transplanted into mice or rats and the tumor volume was measured using a caliper-ruler. The volume of the tumor, in cubic mm, was estimated as the long axis×the square of the short axis divided by 2.
In the experiment of Table 2, female mice, weighing 20-25 g, of a C57B1 line, were transplanted under the skin with B16 melanoma cells. After transplantation of tumors mice were mixed and divided into groups of controls, CRH-treated and [D-Glu^20] CRH-treated. The test substances at a dose of 0.1 mg/kg subcutaneously or the vehicle control (saline) was injected on days 3 to 7 after tumor transplantation, and the volume of tumors were measured at various days afterwards.

The next data set has as its system Walker carcinosarcoma. Nature of the data set: Growth of subcutaneously transplanted Walker carcinosarcoma in rats (tumor volume). The following applies: 0.1 mg/kg. In kind it is in vivo. On the procedure: as §1
(§2) The second experiment and third experiment (data shown in Tables 3 and 4) were conducted on white non-inbred male rats with a subcutaneous transplant of Walker carcinosarcoma or Ehrlich solid carcinoma. Animals after transplantation of tumors were mixed and were divided into groups of controls, CRH-treated and [D-Glu^20] CRH-treated.

The test system of a further data set is Ehrlich solid carcinoma. Put plainly: Growth of subcutaneously transplanted Ehrlich solid carcinoma in rats (tumor volume). Format: in vivo. The following applies: 0.1 mg/kg. As to the method:
as §1, §2

In data set [2] the test system is W256 rat mammary carcinoma. The following applies: 100 micrograms/kg subcutaneously twice a day for 3 days; cited from earlier work.
The next data set relates to W256 cells. The following applies: in vitro; cited from earlier work.
The nature of data set [3]: Hypotensive effect in pentobarbital-anesthetized male rats after i.v. injection. The following applies: 0.05 mg/kg i.v.
Experimental: as §3

Marks after values point to notes of the source that are not given here.

For `CC[C@H](C)[C@H](NC(=O)[C@@H](NC(=O)[C@H](CCC(=O)O)NC(=O)[C@H](CCSC)NC(=O)[C@H](CC(C)C)NC(=O)[C@H](CCCCN)NC(=O)[C@H](CCCNC(=N)N)NC(=O)[C@H](CC(N)=O)NC(=O)[C@H](CO)NC(=O)[C@H](Cc1c[nH]cn1)NC(=O)[C@H](C)NC(=O)[C@H](CCC(N)=O)NC(=O)[C@H](CCC(N)=O)NC(=O)[C@H](C)NC(=O)[C@H](CC(C)C)NC(=O)[C@H](CCC(N)=O)NC(=O)[C@H](CCC(=O)O)NC(=O)[C@H](C)NC(=O)[C@H](CCCNC(=N)N)NC(=O)[C@H](C)NC(=O)[C@H](CCSC)NC(=O)[C@@H](CCC(=O)O)NC(=O)[C@H](CC(C)C)NC(=O)[C@@H](NC(=O)[C@H](CCC(=O)O)NC(=O)[C@H](CCCNC(=N)N)NC(=O)[C@H](CC(C)C)NC(=O)[C@H](CC(C)C)NC(=O)[C@H](Cc1c[nH]cn1)NC(=O)[C@H](Cc1ccccc1)NC(=O)[C@@H](NC(=O)[C@H](CC(C)C)NC(=O)[C@H](CC(=O)O)NC(=O)[C@H](CC(C)C)NC(=O)[C@H](CO)NC(=O)[C@@H](NC(=O)[C@@H]1CCCN1C(=O)[C@@H]1CCCN1C(=O)[C@H](CCC(=O)O)NC(=O)[C@H](CCC(=O)O)NC(=O)[C@@H](N)CO)[C@@H](C)CC)[C@@H](C)O)C(C)C)[C@@H](C)CC)C(N)=O` [[D-Glu^20] CRH], in data set [1], the “hypotensive activity compared with unmodified CRH (human/rat) control” value was “much less hypotensive activity”.
For the compound “hCRH: unmodified human/rat corticotropin-releasing hormone, 41-residue C-terminally amidated peptide, SEQ ID NO 1”, the “Volume of Tumors” value in the data set with B16 melanoma (day 10 after transplantation) is recorded as 29 + 7* mm^3; with B16 melanoma (day 12 after transplantation), 157 + 23* mm^3; in the data set on B16 melanoma (day 14 after transplantation), 133 + 15* mm^3; in the data set with B16 melanoma (day 17 after transplantation) it was 238 + 41 mm^3; in the data set with Walker carcinosarcoma (day 7 after transplantation), 196 mm^3; in the data set with Walker carcinosarcoma (day 10 after transplantation), 3600 ± 413 mm^3. Further, the “Volume of Tumors” value is on record as 6942 mm^3 with Walker carcinosarcoma (day 12 after transplantation); 10832 mm^3 in the data set on Walker carcinosarcoma (day 14 after transplantation); 226 ± 14* mm^3 with Ehrlich solid carcinoma (day 9 after transplantation); 384 ± 61* mm^3 in the data set on Ehrlich solid carcinoma (day 11 after transplantation); 763 ± 114* mm^3 in the data set with Ehrlich solid carcinoma (day 14 after transplantation). Further, in data set [2], the “inhibition of growth of intracerebrally-injected W256 tumor cells” value is reported as “significant inhibition of growth”. Moreover, the “antiproliferative effects in W256 cell cultures” value in the data set with W256 cells was “antiproliferative effects”. Further, in data set [3], the “average fall in mean blood pressure over a 100 minute period” value is 72 mm Hg. Also, in data set [3], the “integrated blood pressure response (area-under-curve) over a 100 minute period” value is recorded as “approximately 7200 mm Hg-min”.
